# Key:
# Test in all cases: KINOMEscan
# Assay type in all cases: binding
# Details in all cases: 1.0 µM
# BRSK1 = molecular target: T1, BRSK1 (Homo sapiens, UniProt Q8TDC3)
# T1 construct: purchased Eurofins/DiscoverX KINOMEscan scanMAX
# Procedure: (§1) Kinase retention to the immobilized ligand is then measured using quantitative real-time PCR for each kinase-specific DNA barcode.
# BMPR1B = molecular target: T2, BMPR1B (Homo sapiens, UniProt O00238)
# T2 construct: purchased Eurofins/DiscoverX KINOMEscan scanMAX
# Procedure: as §1
# AKT2 = molecular target: T3, AKT2 (Homo sapiens, UniProt P31751)
# T3 construct: purchased Eurofins/DiscoverX KINOMEscan scanMAX
# Procedure: as §1
# MERTK = molecular target: T4, MERTK (Homo sapiens, UniProt Q12866)
# T4 construct: purchased Eurofins/DiscoverX KINOMEscan scanMAX
# Procedure: as §1
# CSK = molecular target: T5, CSK (Homo sapiens, UniProt P41240)
# T5 construct: purchased Eurofins/DiscoverX KINOMEscan scanMAX
# Procedure: as §1
# [1] = molecular target: T6, JAK1(JH1domain-catalytic) (Homo sapiens, UniProt P23458)
# T6 construct: JAK1(JH1domain-catalytic); purchased Eurofins/DiscoverX KINOMEscan scanMAX
# Procedure: as §1
# MARK4 = molecular target: T7, MARK4 (Homo sapiens, UniProt Q96L34)
# T7 construct: purchased Eurofins/DiscoverX KINOMEscan scanMAX
# Procedure: as §1
# DRAK1 = molecular target: T8, DRAK1 (Homo sapiens, UniProt Q9UEE5)
# T8 construct: purchased Eurofins/DiscoverX KINOMEscan scanMAX
# Procedure: as §1
# MYO3B = molecular target: T9, MYO3B (Homo sapiens, UniProt Q8WXR4)
# T9 construct: purchased Eurofins/DiscoverX KINOMEscan scanMAX
# Procedure: as §1
# VRK2 = molecular target: T10, VRK2 (Homo sapiens, UniProt Q86Y07)
# T10 construct: DNA tag (qPCR barcode); purchased Eurofins/DiscoverX KINOMEscan scanMAX
# Procedure: as §1
# GAK = molecular target: T11, GAK (Homo sapiens, UniProt O14976)
# T11 construct: purchased Eurofins/DiscoverX KINOMEscan scanMAX
# Procedure: as §1
# TESK1 = molecular target: T12, TESK1 (Homo sapiens, UniProt Q15569)
# T12 construct: purchased Eurofins/DiscoverX KINOMEscan scanMAX
# Procedure: as §1
# PIM3 = molecular target: T13, PIM3 (Homo sapiens, UniProt Q86V86)
# T13 construct: purchased Eurofins/DiscoverX KINOMEscan scanMAX
# Procedure: as §1
# MEK1 = molecular target: T14, MEK1 (Homo sapiens, UniProt Q02750)
# T14 construct: purchased Eurofins/DiscoverX KINOMEscan scanMAX
# Procedure: as §1
# NEK6 = molecular target: T15, NEK6 (Homo sapiens, UniProt Q9HC98)
# T15 construct: purchased Eurofins/DiscoverX KINOMEscan scanMAX
# Procedure: as §1
# TGFBR2 = molecular target: T16, TGFBR2 (Homo sapiens, UniProt P37173)
# T16 construct: purchased Eurofins/DiscoverX KINOMEscan scanMAX
# Procedure: as §1
# ASK2 = molecular target: T17, ASK2 (Homo sapiens, UniProt O95382)
# T17 construct: purchased Eurofins/DiscoverX KINOMEscan scanMAX
# Procedure: as §1
# CDK4-cyclinD3 = molecular target: T18, CDK4-cyclinD3 (Homo sapiens, UniProt P11802)
# T18 construct: purchased Eurofins/DiscoverX KINOMEscan scanMAX
# Procedure: as §1
# RET(M918T) = molecular target: T19, RET(M918T) (Homo sapiens, UniProt P07949, M918T)
# T19 construct: purchased Eurofins/DiscoverX KINOMEscan scanMAX
# Procedure: as §1
# NEK1 = molecular target: T20, NEK1 (Homo sapiens, UniProt Q96PY6)
# T20 construct: purchased Eurofins/DiscoverX KINOMEscan scanMAX
# Procedure: as §1
# KIT(L576P) = molecular target: T21, KIT(L576P) (Homo sapiens, UniProt P10721, L576P)
# T21 construct: purchased Eurofins/DiscoverX KINOMEscan scanMAX
# Procedure: as §1
# TIE1 = molecular target: T22, TIE1 (Homo sapiens, UniProt P35590)
# T22 construct: purchased Eurofins/DiscoverX KINOMEscan scanMAX
# Procedure: as §1
# BLK = molecular target: T23, BLK (Homo sapiens, UniProt P51451)
# T23 construct: purchased Eurofins/DiscoverX KINOMEscan scanMAX
# Procedure: as §1
# FGFR4 = molecular target: T24, FGFR4 (Homo sapiens, UniProt P22455)
# T24 construct: purchased Eurofins/DiscoverX KINOMEscan scanMAX
# Procedure: as §1
# PIK3CG = molecular target: T25, PIK3CG (Homo sapiens, UniProt P48736)
# T25 construct: purchased Eurofins/DiscoverX KINOMEscan scanMAX
# Procedure: as §1
# ICK = molecular target: T26, ICK (Homo sapiens, UniProt Q9UPZ9)
# T26 construct: purchased Eurofins/DiscoverX KINOMEscan scanMAX
# Procedure: as §1
# PFPK5(P.falciparum) = molecular target: T27, PFPK5(P.falciparum) (Plasmodium falciparum, UniProt P61075)
# T27 construct: purchased Eurofins/DiscoverX KINOMEscan scanMAX
# Procedure: as §1
# YSK4 = molecular target: T28, YSK4 (Homo sapiens, UniProt Q56UN5)
# T28 construct: purchased Eurofins/DiscoverX (KINOMEscan scanMAX service)
# Procedure: as §1
# CSNK1A1L = molecular target: T29, CSNK1A1L (Homo sapiens, UniProt Q8N752)
# T29 construct: purchased Eurofins/DiscoverX KINOMEscan scanMAX
# Procedure: as §1
# CDKL2 = molecular target: T30, CDKL2 (Homo sapiens, UniProt Q92772)
# T30 construct: purchased Eurofins/DiscoverX KINOMEscan scanMAX
# Procedure: as §1
# ROCK2 = molecular target: T31, ROCK2 (Homo sapiens, UniProt O75116)
# T31 construct: purchased Eurofins/DiscoverX KINOMEscan scanMAX
# Procedure: as §1
# MAP4K2 = molecular target: T32, MAP4K2 (Homo sapiens, UniProt Q12851)
# T32 construct: purchased Eurofins/DiscoverX KINOMEscan scanMAX
# Procedure: as §1
# PIK3CA = molecular target: T33, PIK3CA (Homo sapiens, UniProt P42336)
# T33 construct: purchased Eurofins/DiscoverX KINOMEscan scanMAX
# Procedure: as §1
# PLK3 = molecular target: T34, PLK3 (Homo sapiens, UniProt Q9H4B4)
# T34 construct: purchased Eurofins/DiscoverX KINOMEscan scanMAX
# Procedure: as §1
# WNK1 = molecular target: T35, WNK1 (Homo sapiens, UniProt Q9H4A3)
# T35 construct: DNA tag (qPCR barcode); purchased Eurofins/DiscoverX KINOMEscan scanMAX
# Procedure: as §1
# MYLK = molecular target: T36, MYLK (Homo sapiens, UniProt Q15746)
# T36 construct: purchased Eurofins/DiscoverX KINOMEscan scanMAX
# Procedure: as §1
# CDKL1 = molecular target: T37, CDKL1 (Homo sapiens, UniProt Q00532)
# T37 construct: purchased Eurofins/DiscoverX KINOMEscan scanMAX
# Procedure: as §1
# [2] = molecular target: T38, ABL1(H396P)-nonphosphorylated (Homo sapiens, UniProt P00519, H396P)
# T38 construct: purchased Eurofins/DiscoverX KINOMEscan scanMAX
# Procedure: as §1
# ERK5 = molecular target: T39, ERK5 (Homo sapiens, UniProt Q13164)
# T39 construct: purchased Eurofins/DiscoverX KINOMEscan scanMAX
# Procedure: as §1
# NEK3 = molecular target: T40, NEK3 (Homo sapiens, UniProt P51956)
# T40 construct: purchased Eurofins/DiscoverX KINOMEscan scanMAX
# Procedure: as §1
# PRKD3 = molecular target: T41, PRKD3 (Homo sapiens, UniProt O94806)
# T41 construct: purchased Eurofins/DiscoverX KINOMEscan scanMAX
# Procedure: as §1
# PIK3CA(E545K) = molecular target: T42, PIK3CA(E545K) (Homo sapiens, UniProt P42336, E545K)
# T42 construct: purchased Eurofins/DiscoverX KINOMEscan scanMAX
# Procedure: as §1
# T36 sequence (Q15746 whole entry): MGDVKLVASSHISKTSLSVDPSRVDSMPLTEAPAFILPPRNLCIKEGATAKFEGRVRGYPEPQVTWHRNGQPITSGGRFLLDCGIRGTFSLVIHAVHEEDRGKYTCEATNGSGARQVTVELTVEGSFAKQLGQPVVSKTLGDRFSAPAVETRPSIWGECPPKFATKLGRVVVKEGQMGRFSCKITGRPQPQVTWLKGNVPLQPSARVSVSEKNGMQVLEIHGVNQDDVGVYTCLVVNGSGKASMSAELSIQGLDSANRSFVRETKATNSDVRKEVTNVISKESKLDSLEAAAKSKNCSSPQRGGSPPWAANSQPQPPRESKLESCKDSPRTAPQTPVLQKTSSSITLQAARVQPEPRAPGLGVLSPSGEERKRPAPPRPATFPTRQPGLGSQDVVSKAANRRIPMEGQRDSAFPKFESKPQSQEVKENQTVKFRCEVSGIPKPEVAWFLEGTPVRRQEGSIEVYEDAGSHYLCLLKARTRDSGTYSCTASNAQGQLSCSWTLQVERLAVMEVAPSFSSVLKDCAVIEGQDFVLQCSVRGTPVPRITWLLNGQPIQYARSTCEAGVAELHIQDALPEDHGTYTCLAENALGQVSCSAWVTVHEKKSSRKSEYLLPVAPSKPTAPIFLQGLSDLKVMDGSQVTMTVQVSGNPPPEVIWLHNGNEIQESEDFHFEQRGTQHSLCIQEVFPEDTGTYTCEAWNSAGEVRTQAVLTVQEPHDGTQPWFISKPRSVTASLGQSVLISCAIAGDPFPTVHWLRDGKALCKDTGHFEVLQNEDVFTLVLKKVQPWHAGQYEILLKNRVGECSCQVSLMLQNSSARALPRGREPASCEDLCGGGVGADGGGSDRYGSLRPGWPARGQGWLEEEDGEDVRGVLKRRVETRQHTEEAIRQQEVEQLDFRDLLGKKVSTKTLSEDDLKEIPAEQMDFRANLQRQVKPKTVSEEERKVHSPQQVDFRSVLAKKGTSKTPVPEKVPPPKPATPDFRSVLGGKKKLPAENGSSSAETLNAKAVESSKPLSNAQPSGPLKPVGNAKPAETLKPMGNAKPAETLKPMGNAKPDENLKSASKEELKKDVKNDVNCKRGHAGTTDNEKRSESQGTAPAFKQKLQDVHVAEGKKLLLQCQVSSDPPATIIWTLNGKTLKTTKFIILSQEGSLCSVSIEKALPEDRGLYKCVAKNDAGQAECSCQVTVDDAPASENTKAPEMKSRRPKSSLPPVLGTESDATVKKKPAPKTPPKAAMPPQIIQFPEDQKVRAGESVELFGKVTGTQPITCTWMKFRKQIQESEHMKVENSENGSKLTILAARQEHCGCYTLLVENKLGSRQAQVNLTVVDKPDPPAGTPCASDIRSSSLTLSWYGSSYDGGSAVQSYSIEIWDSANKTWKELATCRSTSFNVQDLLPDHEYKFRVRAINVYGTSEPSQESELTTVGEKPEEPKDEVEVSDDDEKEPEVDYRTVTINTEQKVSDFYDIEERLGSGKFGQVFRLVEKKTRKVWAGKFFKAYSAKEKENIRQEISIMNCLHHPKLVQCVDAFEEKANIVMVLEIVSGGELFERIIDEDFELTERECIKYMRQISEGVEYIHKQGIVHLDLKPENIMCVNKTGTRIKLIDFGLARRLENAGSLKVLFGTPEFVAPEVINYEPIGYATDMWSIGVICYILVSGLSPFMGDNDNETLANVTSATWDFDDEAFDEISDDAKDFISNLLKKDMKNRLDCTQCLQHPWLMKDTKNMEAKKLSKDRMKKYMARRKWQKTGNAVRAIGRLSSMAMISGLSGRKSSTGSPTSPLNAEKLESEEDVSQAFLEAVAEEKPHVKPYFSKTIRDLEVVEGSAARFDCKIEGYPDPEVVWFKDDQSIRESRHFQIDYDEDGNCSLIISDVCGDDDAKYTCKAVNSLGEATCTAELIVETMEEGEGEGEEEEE
# T8 sequence (Q9UEE5 whole entry): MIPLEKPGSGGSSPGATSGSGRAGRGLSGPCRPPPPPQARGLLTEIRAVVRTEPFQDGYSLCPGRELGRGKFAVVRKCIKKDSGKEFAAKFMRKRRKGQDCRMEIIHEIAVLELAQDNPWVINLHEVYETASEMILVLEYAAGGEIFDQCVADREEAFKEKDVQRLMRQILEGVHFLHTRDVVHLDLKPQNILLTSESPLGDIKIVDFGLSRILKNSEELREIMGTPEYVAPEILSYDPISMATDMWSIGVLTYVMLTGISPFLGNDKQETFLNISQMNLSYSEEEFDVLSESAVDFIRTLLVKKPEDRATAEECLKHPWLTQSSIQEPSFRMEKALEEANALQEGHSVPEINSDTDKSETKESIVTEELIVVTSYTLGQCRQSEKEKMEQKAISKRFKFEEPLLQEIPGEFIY
# T33 sequence (P42336 whole entry): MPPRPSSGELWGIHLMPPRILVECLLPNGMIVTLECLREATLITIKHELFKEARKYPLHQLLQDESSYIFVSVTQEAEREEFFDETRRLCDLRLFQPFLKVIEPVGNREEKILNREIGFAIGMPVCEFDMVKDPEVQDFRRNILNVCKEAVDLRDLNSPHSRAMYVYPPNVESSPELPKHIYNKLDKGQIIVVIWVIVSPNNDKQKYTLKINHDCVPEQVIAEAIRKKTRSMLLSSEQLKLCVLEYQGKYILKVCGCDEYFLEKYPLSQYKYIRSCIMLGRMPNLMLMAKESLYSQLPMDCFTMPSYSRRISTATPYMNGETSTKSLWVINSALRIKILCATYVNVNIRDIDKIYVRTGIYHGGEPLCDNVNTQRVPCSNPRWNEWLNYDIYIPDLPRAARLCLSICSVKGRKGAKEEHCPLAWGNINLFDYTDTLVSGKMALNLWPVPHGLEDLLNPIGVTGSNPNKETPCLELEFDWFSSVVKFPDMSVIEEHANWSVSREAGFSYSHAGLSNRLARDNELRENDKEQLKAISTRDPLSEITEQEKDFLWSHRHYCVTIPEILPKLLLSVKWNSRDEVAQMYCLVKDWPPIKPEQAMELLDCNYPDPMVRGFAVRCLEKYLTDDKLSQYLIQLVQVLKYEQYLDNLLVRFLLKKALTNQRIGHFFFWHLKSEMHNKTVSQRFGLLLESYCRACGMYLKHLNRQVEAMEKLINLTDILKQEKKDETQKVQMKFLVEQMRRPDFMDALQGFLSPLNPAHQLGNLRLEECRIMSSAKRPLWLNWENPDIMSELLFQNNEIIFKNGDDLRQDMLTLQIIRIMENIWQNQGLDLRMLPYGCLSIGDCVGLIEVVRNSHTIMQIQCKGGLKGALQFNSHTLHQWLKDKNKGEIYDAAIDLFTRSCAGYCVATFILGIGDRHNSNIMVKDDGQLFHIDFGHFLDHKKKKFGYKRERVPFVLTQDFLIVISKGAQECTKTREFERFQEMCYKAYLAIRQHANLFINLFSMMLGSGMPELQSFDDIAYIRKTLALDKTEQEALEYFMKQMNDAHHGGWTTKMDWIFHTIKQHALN
# T40 sequence (P51956 whole entry): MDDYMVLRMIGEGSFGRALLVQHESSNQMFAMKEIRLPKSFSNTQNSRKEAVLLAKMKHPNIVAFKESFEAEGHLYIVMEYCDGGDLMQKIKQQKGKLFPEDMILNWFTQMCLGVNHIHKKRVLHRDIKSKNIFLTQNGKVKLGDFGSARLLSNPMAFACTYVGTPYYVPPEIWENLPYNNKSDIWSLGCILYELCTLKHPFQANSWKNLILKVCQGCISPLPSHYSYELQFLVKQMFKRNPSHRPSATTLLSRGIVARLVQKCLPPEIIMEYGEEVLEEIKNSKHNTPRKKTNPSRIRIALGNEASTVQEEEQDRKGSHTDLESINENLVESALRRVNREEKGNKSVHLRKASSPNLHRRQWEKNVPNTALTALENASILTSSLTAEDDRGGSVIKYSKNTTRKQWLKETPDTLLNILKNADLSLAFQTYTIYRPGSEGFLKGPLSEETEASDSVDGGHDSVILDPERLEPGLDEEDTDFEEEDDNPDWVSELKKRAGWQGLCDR
# T30 sequence (Q92772 whole entry): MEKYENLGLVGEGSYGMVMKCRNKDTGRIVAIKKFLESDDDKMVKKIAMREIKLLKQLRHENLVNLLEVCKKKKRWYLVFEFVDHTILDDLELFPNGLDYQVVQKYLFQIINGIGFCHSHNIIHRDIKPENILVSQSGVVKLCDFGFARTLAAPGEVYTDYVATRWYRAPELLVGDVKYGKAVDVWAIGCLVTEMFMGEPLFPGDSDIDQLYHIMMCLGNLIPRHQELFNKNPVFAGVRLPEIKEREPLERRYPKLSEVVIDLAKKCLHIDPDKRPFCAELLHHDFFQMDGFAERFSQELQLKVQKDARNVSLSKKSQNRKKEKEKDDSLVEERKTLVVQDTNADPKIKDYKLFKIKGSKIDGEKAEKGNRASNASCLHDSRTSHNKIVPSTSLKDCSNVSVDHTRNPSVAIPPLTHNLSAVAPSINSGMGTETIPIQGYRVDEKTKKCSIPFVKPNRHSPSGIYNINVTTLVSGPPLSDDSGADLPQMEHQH
# T37 sequence (Q00532 whole entry): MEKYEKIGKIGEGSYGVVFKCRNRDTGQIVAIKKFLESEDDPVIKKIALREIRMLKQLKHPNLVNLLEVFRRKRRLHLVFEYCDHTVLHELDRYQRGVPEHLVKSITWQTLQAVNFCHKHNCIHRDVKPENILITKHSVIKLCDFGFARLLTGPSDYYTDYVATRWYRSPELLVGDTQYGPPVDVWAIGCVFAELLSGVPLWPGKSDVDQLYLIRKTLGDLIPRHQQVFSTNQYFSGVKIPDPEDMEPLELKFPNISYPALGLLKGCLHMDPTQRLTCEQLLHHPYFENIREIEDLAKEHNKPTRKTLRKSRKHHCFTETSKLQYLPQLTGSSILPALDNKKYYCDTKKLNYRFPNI
# T27 sequence (P61075 whole entry): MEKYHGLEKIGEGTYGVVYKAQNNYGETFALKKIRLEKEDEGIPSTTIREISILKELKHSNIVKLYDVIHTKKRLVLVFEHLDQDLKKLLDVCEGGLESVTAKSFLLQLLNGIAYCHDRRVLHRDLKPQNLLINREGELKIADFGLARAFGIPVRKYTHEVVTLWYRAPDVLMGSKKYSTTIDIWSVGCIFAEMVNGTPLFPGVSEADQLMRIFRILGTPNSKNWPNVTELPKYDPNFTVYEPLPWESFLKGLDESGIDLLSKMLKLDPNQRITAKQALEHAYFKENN
smiles,measurement,setting,value
CN1CCN(C2CCC(n3cc(-c4ccc(Oc5ccccc5)cc4)c4c(N)ncnc43)CC2)CC1 (stereo not drawn) [A-419259],% Control,BRSK1,14%
same,% Control,BMPR1B,92%
same,% Control,AKT2,92%
same,% Control,MERTK,12%
same,% Control,CSK,2.1%
same,% Control,[1],99%
same,% Control,MARK4,97%
same,% Control,DRAK1,65%
same,% Control,MYO3B,17%
same,% Control,VRK2,39%
same,% Control,GAK,69%
same,% Control,TESK1,95%
same,% Control,PIM3,100%
same,% Control,MEK1,0.1%
same,% Control,NEK6,65%
same,% Control,TGFBR2,100%
same,% Control,ASK2,62%
same,% Control,CDK4-cyclinD3,81%
same,% Control,RET(M918T),0.1%
same,% Control,NEK1,100%
same,% Control,KIT(L576P),0%
same,% Control,TIE1,25%
same,% Control,BLK,0.05%
same,% Control,FGFR4,62%
same,% Control,PIK3CG,61%
same,% Control,ICK,97%
same,% Control,PFPK5(P.falciparum),78%
same,% Control,YSK4,58%
same,% Control,CSNK1A1L,64%
same,% Control,CDKL2,70%
same,% Control,ROCK2,62%
same,% Control,MAP4K2,98%
same,% Control,PIK3CA,100%
same,% Control,PLK3,72%
same,% Control,WNK1,73%
same,% Control,MYLK,94%
same,% Control,CDKL1,99%
same,% Control,[2],0.2%
same,% Control,ERK5,58%
same,% Control,NEK3,92%
same,% Control,PRKD3,17%
same,% Control,PIK3CA(E545K),95%

# Reference: paper PMC6886798, “Expression of myeloid Src-family kinases is associated with poor prognosis in AML and influences Flt3-ITD kinase inhibitor acquired resistance” (PLoS ONE, 2019)
